# System: Triticum aestivum
# Assay: Growth inhibition of etiolated wheat coleoptiles at 1000 uM relative to control
# Type: functional
# Settings: read-out: GI
row,SMILES,inhibition of growth at 1000 µM
1,CCCCCc1cccc(=O)o1,100%
2,CCCCCC[C@H](O)[C@@H]1CC[C@@H]2[C@H](O)CC[C@H](O)[C@@]2(O)O1 [KONINGININ G],56%

# Reference: ChEMBL document CHEMBL1157998, “Koninginin G, a new metabolite from trichoderma aureoviride” (1999)
